Publication PMC3961306, “Comparison of the Cancer Gene Targeting and Biochemical Selectivities of All Targeted Kinase Inhibitors Approved for Clinical Use” (PLoS ONE, 2014)

Tests used:
Experiment in all cases: Kinase profiling in a biochemical assay panel (mobility shift assays and ELISA), %-inhibition at 1 μM; selectivity entropy
[1] = target: T1, panel of more than 300 wild-type and mutant kinases (313 kinase panel) (Homo sapiens, UniProt Q02156); conditions: kinase PKCε; 1 μM
T1 sequence (Q02156 1-737): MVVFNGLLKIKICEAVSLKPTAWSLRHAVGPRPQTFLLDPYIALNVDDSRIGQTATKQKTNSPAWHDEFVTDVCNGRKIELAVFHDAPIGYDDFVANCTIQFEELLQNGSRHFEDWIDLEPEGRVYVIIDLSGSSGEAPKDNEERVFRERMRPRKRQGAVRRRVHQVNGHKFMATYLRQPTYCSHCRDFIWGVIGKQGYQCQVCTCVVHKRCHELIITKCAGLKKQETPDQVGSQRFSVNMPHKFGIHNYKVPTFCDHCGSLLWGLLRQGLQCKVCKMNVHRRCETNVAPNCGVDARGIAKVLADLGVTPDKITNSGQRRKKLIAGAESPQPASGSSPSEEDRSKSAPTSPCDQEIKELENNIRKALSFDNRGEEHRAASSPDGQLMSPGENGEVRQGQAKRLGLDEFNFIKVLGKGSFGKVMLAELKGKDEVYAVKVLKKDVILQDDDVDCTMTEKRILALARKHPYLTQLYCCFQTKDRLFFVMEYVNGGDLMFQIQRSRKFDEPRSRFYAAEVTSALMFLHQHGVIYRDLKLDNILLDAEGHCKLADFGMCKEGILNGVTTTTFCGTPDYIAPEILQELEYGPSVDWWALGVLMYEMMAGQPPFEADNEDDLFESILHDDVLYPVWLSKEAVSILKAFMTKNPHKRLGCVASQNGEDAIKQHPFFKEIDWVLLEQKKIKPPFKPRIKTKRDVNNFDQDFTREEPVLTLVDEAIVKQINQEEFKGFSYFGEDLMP

[2] = target: panel of more than 300 wild-type and mutant kinases (313 kinase panel) (Homo sapiens, UniProt P49760); conditions: kinase CLK2; 1 μM compound
[3] = target: panel of more than 300 wild-type and mutant kinases (313 kinase panel) (Homo sapiens, UniProt P22694)
[4] = target: T2, panel of more than 300 wild-type and mutant kinases (313 kinase panel) (Homo sapiens, UniProt P29322); conditions: kinase EPHA8; compound at 1 μM
T2 sequence (P29322 28-1005): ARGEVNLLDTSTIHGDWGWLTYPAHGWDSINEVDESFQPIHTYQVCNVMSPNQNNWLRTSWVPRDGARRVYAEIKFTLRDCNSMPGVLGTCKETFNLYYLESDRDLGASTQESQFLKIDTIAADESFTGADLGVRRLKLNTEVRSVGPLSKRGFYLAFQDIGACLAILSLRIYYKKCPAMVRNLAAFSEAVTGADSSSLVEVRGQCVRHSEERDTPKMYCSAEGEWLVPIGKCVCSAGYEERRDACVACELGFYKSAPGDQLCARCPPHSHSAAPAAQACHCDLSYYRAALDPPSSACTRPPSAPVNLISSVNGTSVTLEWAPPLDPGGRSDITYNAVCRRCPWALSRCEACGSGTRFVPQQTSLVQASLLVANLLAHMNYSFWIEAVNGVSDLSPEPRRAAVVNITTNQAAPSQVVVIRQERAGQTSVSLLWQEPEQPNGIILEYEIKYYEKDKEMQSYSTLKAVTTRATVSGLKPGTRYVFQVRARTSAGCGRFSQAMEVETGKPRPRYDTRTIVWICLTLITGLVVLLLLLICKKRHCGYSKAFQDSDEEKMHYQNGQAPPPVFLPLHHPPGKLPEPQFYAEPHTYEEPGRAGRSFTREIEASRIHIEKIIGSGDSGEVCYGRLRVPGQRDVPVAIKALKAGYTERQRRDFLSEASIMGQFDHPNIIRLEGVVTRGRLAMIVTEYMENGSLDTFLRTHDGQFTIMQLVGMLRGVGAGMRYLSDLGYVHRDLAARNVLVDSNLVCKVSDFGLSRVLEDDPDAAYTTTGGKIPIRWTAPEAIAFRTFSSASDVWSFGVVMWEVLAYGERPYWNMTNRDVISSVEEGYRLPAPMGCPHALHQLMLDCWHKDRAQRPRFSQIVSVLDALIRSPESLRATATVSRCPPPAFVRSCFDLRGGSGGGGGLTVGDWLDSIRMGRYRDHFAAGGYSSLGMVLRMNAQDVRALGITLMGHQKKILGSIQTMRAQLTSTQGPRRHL

[5] = target: panel of more than 300 wild-type and mutant kinases (313 kinase panel) (Homo sapiens, UniProt Q00526); conditions: kinase CDK3/CycE1; 1 μM compound
panel of more than 300 wild-type and mutant kinases (313 kinase panel) (Homo sapiens, UniProt Q00526), sequence (Q00526 whole entry, stated change not applied): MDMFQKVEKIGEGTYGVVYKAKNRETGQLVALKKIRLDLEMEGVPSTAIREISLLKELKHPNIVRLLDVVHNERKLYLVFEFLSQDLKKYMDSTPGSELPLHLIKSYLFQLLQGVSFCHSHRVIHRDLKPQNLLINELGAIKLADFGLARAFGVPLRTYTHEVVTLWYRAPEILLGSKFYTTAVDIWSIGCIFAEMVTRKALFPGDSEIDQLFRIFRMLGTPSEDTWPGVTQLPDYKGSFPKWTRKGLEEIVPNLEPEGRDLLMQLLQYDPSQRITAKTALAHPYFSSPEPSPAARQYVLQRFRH

[6] = target: panel of more than 300 wild-type and mutant kinases (313 kinase panel) (Homo sapiens, UniProt P10721, V560G); conditions: kinase KIT(V560G); compound at 1 μM
panel of more than 300 wild-type and mutant kinases (313 kinase panel) (Homo sapiens, UniProt P10721, V560G), sequence (P10721 26-976 V560G): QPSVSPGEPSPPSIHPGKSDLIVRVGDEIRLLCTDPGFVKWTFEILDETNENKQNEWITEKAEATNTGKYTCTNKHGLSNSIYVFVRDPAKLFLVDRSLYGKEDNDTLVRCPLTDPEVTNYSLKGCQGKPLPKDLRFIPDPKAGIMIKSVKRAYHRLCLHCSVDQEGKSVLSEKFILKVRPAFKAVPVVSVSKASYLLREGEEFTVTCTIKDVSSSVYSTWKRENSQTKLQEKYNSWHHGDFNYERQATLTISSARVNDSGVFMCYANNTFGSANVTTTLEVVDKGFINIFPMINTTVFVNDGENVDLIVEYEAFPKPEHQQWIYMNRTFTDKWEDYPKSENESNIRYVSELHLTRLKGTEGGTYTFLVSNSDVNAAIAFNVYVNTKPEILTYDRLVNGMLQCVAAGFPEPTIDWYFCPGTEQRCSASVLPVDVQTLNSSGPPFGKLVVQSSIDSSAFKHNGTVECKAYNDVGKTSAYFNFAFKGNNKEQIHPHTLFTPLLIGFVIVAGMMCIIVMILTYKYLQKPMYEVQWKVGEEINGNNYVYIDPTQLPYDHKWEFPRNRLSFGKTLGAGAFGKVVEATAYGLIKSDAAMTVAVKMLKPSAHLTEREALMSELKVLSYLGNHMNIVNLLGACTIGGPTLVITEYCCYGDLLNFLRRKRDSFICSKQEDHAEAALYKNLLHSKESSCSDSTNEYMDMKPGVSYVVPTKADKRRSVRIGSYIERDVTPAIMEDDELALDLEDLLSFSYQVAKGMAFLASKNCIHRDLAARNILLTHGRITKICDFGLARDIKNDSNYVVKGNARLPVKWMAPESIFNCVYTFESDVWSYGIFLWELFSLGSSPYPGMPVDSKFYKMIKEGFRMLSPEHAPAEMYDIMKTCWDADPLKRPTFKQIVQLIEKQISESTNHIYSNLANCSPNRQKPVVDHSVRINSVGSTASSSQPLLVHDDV

[7] = target: panel of more than 300 wild-type and mutant kinases (313 kinase panel) (Homo sapiens, UniProt Q9UQM7)
panel of more than 300 wild-type and mutant kinases (313 kinase panel) (Homo sapiens, UniProt Q9UQM7), sequence (Q9UQM7 whole entry, change not shown): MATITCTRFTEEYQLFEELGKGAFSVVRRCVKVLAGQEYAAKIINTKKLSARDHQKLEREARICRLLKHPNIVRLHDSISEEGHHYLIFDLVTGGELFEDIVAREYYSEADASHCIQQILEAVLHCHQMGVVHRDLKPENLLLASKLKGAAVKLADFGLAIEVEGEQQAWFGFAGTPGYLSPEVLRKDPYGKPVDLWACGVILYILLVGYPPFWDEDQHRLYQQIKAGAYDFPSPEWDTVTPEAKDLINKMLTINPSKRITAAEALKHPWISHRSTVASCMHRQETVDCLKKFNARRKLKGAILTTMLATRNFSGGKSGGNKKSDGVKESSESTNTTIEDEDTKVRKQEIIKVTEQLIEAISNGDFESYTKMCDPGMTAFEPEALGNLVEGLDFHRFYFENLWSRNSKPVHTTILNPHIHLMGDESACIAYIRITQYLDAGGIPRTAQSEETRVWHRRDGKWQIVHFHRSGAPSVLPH

[8] = target: panel of more than 300 wild-type and mutant kinases (313 kinase panel) (Homo sapiens, UniProt P05129); conditions: kinase PKCγ; 1 μM
[9] = target: panel of more than 300 wild-type and mutant kinases (313 kinase panel) (Homo sapiens, UniProt P06239); conditions: kinase LCK; compound at 1 μM
panel of more than 300 wild-type and mutant kinases (313 kinase panel) (Homo sapiens, UniProt P06239), sequence (P06239 whole entry, change not shown): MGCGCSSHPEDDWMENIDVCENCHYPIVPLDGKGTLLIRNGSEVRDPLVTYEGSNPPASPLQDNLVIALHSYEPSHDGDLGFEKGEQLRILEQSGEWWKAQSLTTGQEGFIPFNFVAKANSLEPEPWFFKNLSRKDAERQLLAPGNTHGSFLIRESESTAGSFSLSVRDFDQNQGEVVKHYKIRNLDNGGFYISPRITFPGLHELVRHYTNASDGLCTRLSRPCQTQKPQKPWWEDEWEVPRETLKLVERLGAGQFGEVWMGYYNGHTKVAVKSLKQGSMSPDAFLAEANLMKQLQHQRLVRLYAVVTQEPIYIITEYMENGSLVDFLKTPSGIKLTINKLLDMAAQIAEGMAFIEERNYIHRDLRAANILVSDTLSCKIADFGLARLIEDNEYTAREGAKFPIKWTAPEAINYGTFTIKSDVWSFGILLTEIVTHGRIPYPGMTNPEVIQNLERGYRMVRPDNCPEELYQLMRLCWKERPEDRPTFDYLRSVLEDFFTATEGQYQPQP

Structure (SMILES) | %-inhibition of PKCε [1] [%] | %-inhibition, CLK2 [2] [%] | %-inhibition of PKACβ ([3]; 1 µM) [%] | %-inhibition of EPHA8 [4] [%] | %-inhibition, CDK3/CycE1 [5] [%] | %-inhibition of KIT(V560G) [6] [%] | %-inhibition, CaMK2α ([7]; 1 µM) [%] | %-inhibition of PKCγ [8] [%] | %-inhibition of LCK [9] [%] | %-inhibition of PKACβ ([3]; kinase PKACβ, 1 μM) [%] | %-inhibition, CaMK2α ([7]; kinase CaMK2α, 1 μM compound) [%]
N#CC[C@H](C1CCCC1)n1cc(-c2ncnc3[nH]ccc23)cn1 [ruxolitinib] | -2.79 | 15 | 39 | 0.379 | -9.52 | -7 | 42 | 6 | 21 |  | 
CO[C@H]1C[C@@H]2CC[C@@H](C)[C@@](O)(O2)C(=O)C(=O)N2CCCC[C@H]2C(=O)O[C@H]([C@H](C)C[C@@H]2CC[C@@H](OC(=O)C(C)(CO)CO)[C@H](OC)C2)CC(=O)[C@H](C)/C=C(\C)[C@@H](O)[C@@H](OC)C(=O)[C@H](C)C[C@H](C)/C=C/C=C/C=C/1C [temsirolimus] | 4.32 | -4.4 |  | -6.55 | -6 | -5 |  | -11 | -2.22 | -6 | -7
CC(=O)Nc1cccc(-n2c(=O)n(C3CC3)c(=O)c3c(Nc4ccc(I)cc4F)n(C)c(=O)c(C)c32)c1 [trametinib] | 6 | -5 |  | -8 | 0.16 | 1 |  | 0.381 | -7 | -5 | -1.65
CCCS(=O)(=O)Nc1ccc(F)c(C(=O)c2c[nH]c3ncc(-c4ccc(Cl)cc4)cc23)c1F [vemurafenib] | -8 | -13 |  | 7 | -4.34 | 32 |  | -4.39 | 81 | 2.66 | -4.25
